How the values were obtained:
Assay type in all cases: in vivo
[1] = test system: Echinochloa crus-galli (ECHCG); experiment: Pre-emergence Test (glasshouse, percentage damage to the plant); conditions: 1000 g/ha unless otherwise stated; for percentage damage to the plant, ECHCG (five-point scale): Echinochloa crus-galli; for percentage damage to the plant, ECHCG: five-point scale
[2] = test system: Abutilon theophrasti (ABUTH); experiment: as above; conditions: 1000 g/ha unless otherwise stated; for percentage damage to the plant, ABUTH (five-point scale): Abutilon theophrasti; for percentage damage to the plant, ABUTH: five-point scale
Zea mays (ZEAMX) [3] = experiment: as above; conditions: 1000 g/ha unless otherwise stated; for percentage damage to the plant, ZEAMX (five-point scale): Zea mays; for percentage damage to the plant, ZEAMX: five-point scale
[4] = test system: Ipomoea hederacea (IPOHE); experiment: as above; conditions: 1000 g/ha unless otherwise stated; for percentage damage to the plant, IPOHE (five-point scale): Ipomoea hederacea; for percentage damage to the plant, IPOHE: five-point scale
[5] = test system: Amaranthus retoflexus (AMARE); experiment: as above; conditions: 1000 g/ha unless otherwise stated; for percentage damage to the plant, AMARE (five-point scale): Amaranthus retoflexus; for percentage damage to the plant, AMARE: five-point scale
Setaria faberi (SETFA) [6] = experiment: as above; conditions: 1000 g/ha unless otherwise stated; for percentage damage to the plant, SETFA (five-point scale): Setaria faberi; for percentage damage to the plant, SETFA: five-point scale
[7] = test system: Ipomoea hederacea (IPOHE); experiment: Post-emergence Test (glasshouse, percentage damage to the plant); conditions: 1000 g/ha unless otherwise stated, evaluated after 13 days; for IPOHE, percentage damage caused to the plant (five-point scale): post-emergence; for Post-emergence Test IPOHE, percentage damage to the plant (five-point scale): post-emergence spray
Outline: (§1)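 Seeds are sown in standard soil under controlled glasshouse conditions. The pots are then sprayed at 1000 g/ha, unless otherwise stated, with compound in acetone/water (50:50) containing 0.5% Tween 20. After 13 days further growth, percentage plant damage is scored from 1 (0-20%) to 5 (81-100%).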

[8] = test system: Amaranthus retoflexus (AMARE); experiment: as above; conditions: 1000 g/ha unless otherwise stated, evaluated after 13 days; for AMARE, percentage damage caused to the plant (five-point scale): post-emergence; for Post-emergence Test AMARE, percentage damage to the plant (five-point scale): post-emergence spray
Outline: (§2)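 Damage was rated 13 days after treatment and expressed on a five-point scale: 5=81-100%, 4=61-80%, 3=41-60%, 2=21-40%, 1=0-20%. Spray was applied at 1000 g/ha unless otherwise stated, from acetone/water (50:50) with 0.5% Tween 20, to sown pots.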

Setaria faberi (SETFA) [9] = experiment: as above; conditions: 1000 g/ha unless otherwise stated, evaluated after 13 days; for SETFA, percentage damage caused to the plant (five-point scale): post-emergence; for Post-emergence Test SETFA, percentage damage to the plant (five-point scale): post-emergence spray
Outline: as §1

[10] = test system: Abutilon theophrasti (ABUTH); experiment: as above; conditions: 1000 g/ha unless otherwise stated, evaluated after 13 days; for ABUTH, percentage damage caused to the plant (five-point scale): post-emergence; for Post-emergence Test ABUTH, percentage damage to the plant (five-point scale): post-emergence spray
Outline: as §2

Zea mays (ZEAMX) [11] = experiment: as above; conditions: 1000 g/ha unless otherwise stated, evaluated after 13 days; for ZEAMX, percentage damage caused to the plant (five-point scale): post-emergence; for Post-emergence Test ZEAMX, percentage damage to the plant (five-point scale): post-emergence spray
Outline: as §1

[12] = test system: Echinochloa crus-galli (ECHCG); experiment: as above; conditions: post-emergence spray, 1000 g/ha unless otherwise stated, evaluated after 13 days
Outline: as §2

Row | Structure (SMILES) | percentage damage to the plant, ECHCG (five-point scale) [1] | percentage damage to the plant, ABUTH (five-point scale) [2] | percentage damage to the plant, ZEAMX (five-point scale) (Zea mays (ZEAMX) [3]) | percentage damage to the plant, IPOHE (five-point scale) [4] | percentage damage to the plant, AMARE (five-point scale) [5] | percentage damage to the plant, SETFA (five-point scale) (Setaria faberi (SETFA) [6]) | IPOHE, percentage damage caused to the plant (five-point scale) [7] | AMARE, percentage damage caused to the plant (five-point scale) [8] | SETFA, percentage damage caused to the plant (five-point scale) (Setaria faberi (SETFA) [9]) | ABUTH, percentage damage caused to the plant (five-point scale) [10] | percentage damage to the plant, ECHCG [1] | percentage damage to the plant, ZEAMX (Zea mays (ZEAMX) [3]) | percentage damage to the plant, IPOHE [4] | percentage damage to the plant, AMARE [5] | percentage damage to the plant, SETFA (Setaria faberi (SETFA) [6]) | Post-emergence Test IPOHE, percentage damage to the plant (five-point scale) [7] | Post-emergence Test AMARE, percentage damage to the plant (five-point scale) [8] | Post-emergence Test SETFA, percentage damage to the plant (five-point scale) (Setaria faberi (SETFA) [9]) | Post-emergence Test ABUTH, percentage damage to the plant (five-point scale) [10] | Post-emergence Test ZEAMX, percentage damage to the plant (five-point scale) (Zea mays (ZEAMX) [11]) | further results
1 | CCn1c(-c2ccc(Cl)c(Cl)c2)c(C(=O)O)c(=O)c(-c2ccc(Cl)cc2)c1C(F)F [Compound 204, 5-(4-chlorophenyl)-2-(3,4-dichlorophenyl)-6-(difluoromethyl)-1-ethyl-4-oxo-pyridine-3-carboxylic acid] | 0 | 2 (2=21-40%) | 0 | 0 | 5 (5=81-100%) | 0 | 2 (2=21-40%) | 5 (5=81-100%) | 3 (3=41-60%) | 5 (5=81-100%) | – | – | – | – | – | – | – | – | – | – | ZEAMX, percentage damage caused to the plant (five-point scale) (Zea mays (ZEAMX) [11]): 1 (1=0-20%)
2 | CCn1c(-c2ccc(Cl)c(Cl)c2)c(C(=O)OC)c(=O)c(-c2ccc(Cl)cc2)c1C(F)F [Compound 205, methyl 5-(4-chlorophenyl)-2-(3,4-dichlorophenyl)-6-(difluoromethyl)-1-ethyl-4-oxo-pyridine-3-carboxylate] | 0 | 0 | 0 | 0 | 0 | 0 | 1 (1=0-20%) | 1 (1=0-20%) | 0 | 0 | – | – | – | – | – | – | – | – | – | – | ZEAMX, percentage damage caused to the plant (five-point scale) (Zea mays (ZEAMX) [11]): 0
3 | CCn1c(C)c(-c2ccc(F)cc2OC)c(=O)c(C(=O)OC)c1-c1ccc(Cl)c(Cl)c1 [Compound 164, methyl 2-(3,4-dichlorophenyl)-1-ethyl-5-(4-fluoro-2-methoxy-phenyl)-6-methyl-4-oxo-pyridine-3-carboxylate] | – | – | – | – | – | – | – | – | – | – | 0 | 0 | 0 | 0 | 0 | 1 (1=0-20%) | 1 (1=0-20%) | 1 (1=0-20%) | 1 (1=0-20%) | 1 (1=0-20%) | Post-emergence Test ECHCG, percentage damage to the plant (five-point scale) [12]: 0
4 | CCn1c(C)c(-c2ccc(Cl)cc2)c(=O)c(C(=O)O)c1-c1ccc(Br)cc1F [Compound 133, 2-(4-bromo-2-fluoro-phenyl)-5-(4-chlorophenyl)-1-ethyl-6-methyl-4-oxo-pyridine-3-carboxylic acid] | – | – | – | – | – | – | – | – | – | – | 4 (4=61-80%) | 2 (2=21-40%) | 2 (2=21-40%) | 2 (2=21-40%) | 5 (5=81-100%) | 3 (3=41-60%) | 4 (4=61-80%) | 1 (1=0-20%) | 2 (2=21-40%) | 1 (1=0-20%) | percentage damage to the plant, ABUTH [2]: 3 (3=41-60%)
5 | CCn1c(C)c(-c2ccc(F)cc2F)c(=O)c(C(=O)O)c1-c1ccc(Cl)cc1 [Compound 192, 2-(4-chlorophenyl)-5-(2,4-difluorophenyl)-1-ethyl-6-methyl-4-oxo-pyridine-3-carboxylic acid] | – | – | – | – | – | – | – | – | – | – | 2 (2=21-40%) | 0 | 1 (1=0-20%) | 1 (1=0-20%) | 2 (2=21-40%) | 2 (2=21-40%) | 2 (2=21-40%) | 4 (4=61-80%) | 4 (4=61-80%) | 2 (2=21-40%) | percentage damage to the plant, ABUTH [2]: 2 (2=21-40%)

— patent publication US12660819B2, “Herbicidal derivatives” (SYNGENTA CROP PROTECTION AG, priority 2020, dated 2026)
